Experimental data reported in patent US9320750B2, “Compositions and methods of treatment of drug resistant cancers” (priority 2012, dated 2016).
“Also recorded” adds a separate entry of the source. Read-outs that look alike come from different tables or passages of the source.

Key:
[1] = test system: BT-20 xenograft tumors; test: Xenograft tumor model
[2] = test system: MCF7 cells; test: RNA expression analysis by microarray; type: cell-based, human; conditions: erlotinib alone, 24 hr
From the text: (§1) RNA was extracted from cells using the RNAeasy Kit (QIAGEN). Affymetrix Human U133 Plus 2.0 microarrays were hybridized, labeled, and processed on a fee-for-service basis through the MIT BioMicro Center. Microarray data were obtained from three independent biological replicates per time point and analyzed using linear model for microarray (LIMMA).
(§2) RNA was extracted from cells using the RNAeasy Kit (QIAGEN). Affymetrix Human U133 Plus 2.0 microarrays were hybridized, labeled and processed on a fee-for-service basis through the BioMicro Center at MIT. Microarray data were obtained from 3 independent biological replicates per time point. Detailed analysis of microarray data was performed with help from the Bioinformatics Core Facility at the Koch Institute at MIT. Expression data can be found in the GEO repository under the accession number GSE30516.

[3] = test system: BT-20 cells; test: RNA expression analysis by microarray; type: cell-based, human; conditions: for differentially expressed genes (DEGs): erlotinib alone
From the text: as §1, §2

[4] = test system: MDA-MB-453 cells; test: RNA expression analysis by microarray; type: cell-based, human; conditions: erlotinib alone, 24 hr
From the text: as §1, §2

[5] = test system: caspase-8; test: Caspase-8 cleavage by western blot in lung cancer cell lines; type: cell-based, human; conditions: ERL→DOX in NCI-H1650, A549 and NCI-H358
From the text: (§3) Cells were lysed in a manner that would allow samples to be used for both western blot analysis and reverse-phase protein microarray. Data generated by quantitative western blot were preprocessed prior to use in computational modeling. Raw signals for each protein target of interest were quantified and background subtracted using the Li-COR Odyssey software and divided by P-actin signals to normalize for loading differences, and then each normalized signal was divided by a reference sample contained on each gel for gel-to-gel normalization.

[6] = test system: BT-20 cells
Description: (§4) 1×10^6 cells were seeded in a 10 cm dish 24 hr prior to the experiment. […] Following the treatment time course, cells were washed in PBS, trypsinized, and fixed in 4% paraformaldehyde (PFA) in PBS for 15 min at room temperature (RT), then resuspended in ice cold methanol and incubated overnight at −20° C. Cells were then washed twice in PBS+0.1% Tween and stained with antibodies directed against cleaved forms of caspase-3 and PARP (BD PharMingen). […] Data reported are always percent cleaved-caspase-3/cleaved-PARP double positive cells.
(§5) Following the treatment time course, cells were washed, trypsinized, fixed in 4% paraformaldehyde for 15 min at room temperature, resuspended in ice-cold methanol, and incubated overnight at −20° C. Cells were then washed twice in PBS-Tween and stained with antibodies against cleaved caspase-3 and poly(ADP-ribose) polymerase (PARP). Secondary Alexa-conjugated anti-bodies were used for visualization in a BD FacsCaliber flow cytometer.

[7] = test system: A549; test: Apoptosis, cleaved caspase-3/cleaved PARP flow cytometry; conditions: time-staggered inhibition of EGFR using erlotinib (ERL→DOX)
[8] = test system: BT-474 cells; test: as above; type: cell-based, human
Description: (§6) 1×10^6 cells were seeded in a 10 cm dish 24 hr prior to the experiment. […]. Following the treatment time course, cells were washed in PBS, trypsinized, and fixed in 4% paraformaldehyde (PFA) in PBS for 15 min at room temperature (RT), then resuspended in ice cold methanol and incubated overnight at −20° C. Cells were then washed twice in PBS+0.1% Tween and stained with antibodies directed against cleaved forms of caspase-3 and PARP (BD PharMingen). Secondary antibodies conjugated to Alexa dyes (488 and 647) were used for visualization in a BD FacsCaliber flow cytometer (Molecular Probes). Data reported are always percent cleaved-caspase-3/cleaved-PARP double positive cells.
as §5

[9] = test system: MDA-MB-453 cells; test: as above; type: cell-based, human
Description: as §6, §5

[10] = test system: ten triple-negative cell lines; test: Apoptosis across panel of triple-negative cell lines; type: cell-based, human; conditions: time-staggered ERL→DOX
Description: as §6, §5

[11] = test system: NCI-H1650 cells; test: Apoptosis, cleaved caspase-3/cleaved PARP flow cytometry; conditions: time-staggered inhibition of EGFR using erlotinib (ERL→DOX)
[12] = test system: Hs578Bst; test: as above; type: cell-based, human; conditions: erlotinib-doxorubicin combinations; normal peripheral breast tissue line
Description: as §4, §5

[13] = test system: NCI-H358; test: as above; conditions: time-staggered inhibition of EGFR using erlotinib (ERL→DOX)
[14] = test system: MCF7 cells; test: as above
[15] = test system: BT-20 cells; test: Soft agar growth assay; type: cell-based, human; conditions: sustained EGFR inhibition with erlotinib
Description: Soft agar growth assays were performed as described by Sapi, E., Flick, M. B., Rodov, S, and Kacinski, B. M. (1998). Ets-2 Transdominant Mutant Abolishes Anchorage-Independent Growth and Macrophage Colony Stimulating Factor-Stimulated Invasion by BT20 Breast Carcinoma Cells. Cancer Res. 58, 1027-1033.

[16] = test system: caspase-8; test: Caspase-8 cleavage by western blot in TNBC cell lines; type: cell-based, human; conditions: TNBC cell lines in which ERL→DOX was synergistic; 8 hr after DOX
From the text: as §3

[17] = test system: caspase-8; test: Caspase-8 cleavage by western blot in HER2-driven cells; type: cell-based, human; conditions: lapatinib/doxorubicin combinations in HER2-driven cells (MDA-MB-453, BT-474)
From the text: as §3

[18] = single dose doxorubicin alone, 4 mg/kg intraperitoneally
[19] = all temporal combinations of lapatinib and doxorubicin, HER2-overexpressing cells
[20] = lapatinib pretreatment (LAP→DOX)

COc1cccc2c1C(=O)c1c(O)c3c(c(O)c1C2=O)C[C@@](O)(C(=O)CO)C[C@@H]3O[C@H]1C[C@H](N)[C@H](O)[C@H](C)O1 [doxorubicin]
time at which residual tumors reached pretreatment volume [1, 18]: 14 days | tumor volume over the first 3 days after treatment [1, 18]: marked reduction in tumor volume

C#Cc1cccc(Nc2ncnc3cc(OCCOC)c(OCCOC)cc23)c1 [erlotinib]
genes significantly altered [2]: one | breast cancer subtype gene expression pattern ([3]; chronic erlotinib treatment): progressive time-dependent loss of basal-like gene expression with concomitant gain in luminal A-like gene expression | differentially expressed genes (DEGs) ([3]; 30 min): few | differentially expressed genes (DEGs) ([3]; 6 hr): more than 1,200 | differentially expressed genes (DEGs) ([3]; 24 hr): more than 2,000 | GeneGO cellular networks with significant changes (of 34) ([3]; long-term erlotinib treatment): 16 | GSEA oncogenic signatures ([3]; sustained erlotinib exposure): loss of the Ras and MYC oncogenic signatures | differentially expressed genes (DEGs) [4]: 235 | caspase-8 cleavage [5]: associated with caspase-8 cleavage | increase in cell killing (apoptotic response) [6]: ≤ 500% | interaction with doxorubicin in killing (Chou-Talalay method) [6]: synergistic | killing in combination with camptothecin [6]: Synergistic killing | killing in combination with doxorubicin [6]: Synergistic killing | effect on apoptosis of adding erlotinib to EGFR knockdown cells ([6]; EGFR siRNA knockdown, delayed doxorubicin): no additional effect | cell death ([6]; erlotinib alone): did not cause death | apoptotic stimulus ([6]; erlotinib alone or added at the same time as or shortly before doxorubicin, 10 μM, TNBC (BT-20) cells): not a potent apoptotic stimulus | sensitization to killing by doxorubicin [7]: dramatic sensitization | effect on sensitivity to doxorubicin ([8]; pretreatment with erlotinib): desensitization | effect on doxorubicin sensitivity ([9]; chronic EGFR inhibition, erlotinib pretreatment before doxorubicin): antagonized doxorubicin sensitivity; also recorded: desensitized | cell death ([9]; erlotinib alone): did not cause death | cell lines with enhanced sensitivity to doxorubicin ([10]; sustained EGFR inhibition): nine of ten | cell lines with synergistic effect ([10]; Chou-Talalay combination index): four of the ten | tumor regrowth ([1]; erlotinib 25 mg/kg given 8 hr prior to doxorubicin 4 mg/kg (E→D), i.p., 14 day monitoring): failed to regrow | initial reduction in tumor size versus doxorubicin alone ([1]; erlotinib 25 mg/kg given at the same time as doxorubicin 4 mg/kg (D/E), i.p.): initial reduction in tumor size was greater | sensitization to killing by doxorubicin [11]: dramatic sensitization | effect of order and timing of drug addition on apoptosis [12]: little effect | sensitization to killing by doxorubicin [13]: dramatic sensitization | interaction with doxorubicin (Chou-Talalay method) ([14]; all temporal erlotinib-doxorubicin combinations): merely additive | cell death ([14]; erlotinib alone): did not cause death | soft agar colony formation [15]: potently inhibited | caspase-8 cleavage [16]: caspase-8 cleavage following sequential administration, but not other drug treatments

CS(=O)(=O)CCNCc1ccc(-c2ccc3ncnc(Nc4ccc(OCc5cccc(F)c5)c(Cl)c4)c3c2)o1 [lapatinib]
killing in combination with camptothecin ([6]; time-staggered pretreatment with EGFR inhibitor, then camptothecin): Synergistic killing | killing in combination with doxorubicin ([6]; time-staggered pretreatment with EGFR inhibitor, then doxorubicin): Synergistic killing | interaction with doxorubicin [8, 19]: synergistic | effect on sensitivity to doxorubicin [8, 20]: enhanced sensitivity to doxorubicin | interaction with doxorubicin [9, 19]: synergistic | effect on sensitivity to doxorubicin [9, 20]: enhanced sensitivity to doxorubicin | caspase-8 cleavage [17]: only observed following LAP→DOX treatment
